Common to all, as to format: cell-based
Experiment [1] deals with MV-4-11 cells. Description: AML cell viability assay (RealTime-Glo). Particulars: Homo sapiens, MV4-11, IC50 class, MV-4-11 cells, read-out: Cell viability classification.
For experiment [2], the target named is T1, CK1α (Homo sapiens, UniProt P48729+Q96SW2). Description: CK1α degradation, Western blot in MV-4-11 cells. On the set-up: CK1α levels were determined in MV-4-11 cells using Jess (Protein Simple); host or cells: MV-4-11. To be noted: % reduction of CK1α compared to DMSO, MV4-11 cells at 1 μM for 4 hours, read-out: CK1α degradation classification. Here is the method:
(§1) MM.1S and NCCIT cells were obtained from ATCC and grown in RPMI-1640 supplemented with 10% FBS. MV-4-11 cells were obtained from ATCC and grown in IMDM supplemented with 10% FBS. The cells were maintained at 37° C. under 5% CO2.
(§2) Compounds of the present disclosure was added to cells (final DMSO concentration of 0.1%) and incubated for 4 hours. CK1α levels were determined in MV-4-11 cells using Western blot analysis. Whole cell lysates were prepared in lysis buffer (1×RIPA buffer [Thermo, 89900], 2 mM MgCl2 [Sigma, M1028], 0.05% Benzonase [Sigma, E1014], 1× Pierce protease inhibitor tablets EDTA-free [Thermo, A32965]). 6-20 g of the lysates were analyzed using Western blot with antibodies against CK1α (Abcam, ab108296) and β-actin (R&D Systems, MAB8929).
The efficacy of CK1α degradation of other part of compounds of the present disclosure was determined by treating MV4-11 cells at 1 μM (Final DMSO concentration of 0.1%) for 4 hours. Protein levels relative to DMSO are calculated for CK1α. The compounds are classified based on the amount of CK1α degradation (% reduction of CK1α compared to DMSO) as follows. • A: Degradation is greater than or equal to 75%; • B: Degradation is less than 75% & greater than or equal to 50%; • C: Degradation is less than […]; • ND: not determined.

In experiment [3] the target is T1, CK1α. Description: CK1α degradation, Jess assay in MV-4-11 cells. Also noted: CK1α levels were determined in MV-4-11 cells using Jess (Protein Simple); host or cells: MV-4-11; dose or concentration left out as unconfirmed. Particulars: MV4-11, % reduction of CK1α compared to DMSO, MV-4-11 cells for 16 hours, normalized to β-actin, read-out: CK1α degradation classification. Here is the method:
as §1
as §2, with “for 16” for “for 4”, “using Jess (Protein Simple). Briefly, whole” for “using Western blot analysis. Whole”, “6-20 μg” for “6-20 g”, “using Jess” for “using Western blot”, “MAB8929). Protein levels were normalized to β-actin levels. DC50 values were obtained using four-parameter non-linear regressions using Prism (GraphPad).” for “MAB8929).”
The efficacy of CK1α degradation of a part of compounds of the present disclosure was determined by treating MV-4-11 cells at […] (final DMSO concentration of 0.1%) for 16 hours. CK1α levels were determined using Jess and normalized to β-actin levels. The compounds are classified based on amount of CK1α degradation (% reduction of CK1α compared to DMSO) as follows. • A: Degradation is greater than or equal to 75%; • B: Degradation is less than […] & greater than or equal to 50%; • C: Degradation is less than […]; • ND: not determined.

Where [4] appears, read: RealTime-Glo after 44 hrs of treatment (TABLE 4).
Setting [5] is: RealTime-Glo after 44 hrs of treatment (TABLE 1).

Counter-ions that a name gives are not always drawn. Like-named read-outs stand apart in the source and are kept apart here. Where only a bound is given, the exact number is not on record here.

T1 sequence (P48729 whole entry): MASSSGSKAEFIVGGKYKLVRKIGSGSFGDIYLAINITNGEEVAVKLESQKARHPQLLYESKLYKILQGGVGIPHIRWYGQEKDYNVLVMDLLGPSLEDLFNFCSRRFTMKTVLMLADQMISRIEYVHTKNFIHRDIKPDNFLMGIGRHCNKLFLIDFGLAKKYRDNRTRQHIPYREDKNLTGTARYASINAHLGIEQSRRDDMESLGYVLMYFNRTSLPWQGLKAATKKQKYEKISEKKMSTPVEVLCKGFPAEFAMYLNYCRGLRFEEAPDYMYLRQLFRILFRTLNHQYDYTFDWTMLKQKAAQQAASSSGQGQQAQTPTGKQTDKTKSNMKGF
T1 sequence (Q96SW2 whole entry): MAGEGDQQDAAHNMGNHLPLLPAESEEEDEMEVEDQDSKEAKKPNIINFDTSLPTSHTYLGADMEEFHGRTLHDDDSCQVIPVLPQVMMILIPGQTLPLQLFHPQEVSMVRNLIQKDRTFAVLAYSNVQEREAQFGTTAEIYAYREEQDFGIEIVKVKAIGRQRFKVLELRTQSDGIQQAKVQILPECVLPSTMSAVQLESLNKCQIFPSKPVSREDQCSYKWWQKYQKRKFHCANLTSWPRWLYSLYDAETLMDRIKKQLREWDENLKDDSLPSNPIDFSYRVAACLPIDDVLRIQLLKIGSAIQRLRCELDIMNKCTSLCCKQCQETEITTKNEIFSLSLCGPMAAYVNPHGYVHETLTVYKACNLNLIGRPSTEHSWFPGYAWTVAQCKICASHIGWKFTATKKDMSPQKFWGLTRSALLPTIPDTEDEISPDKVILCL
T1 sequence (Q16531 whole entry partner): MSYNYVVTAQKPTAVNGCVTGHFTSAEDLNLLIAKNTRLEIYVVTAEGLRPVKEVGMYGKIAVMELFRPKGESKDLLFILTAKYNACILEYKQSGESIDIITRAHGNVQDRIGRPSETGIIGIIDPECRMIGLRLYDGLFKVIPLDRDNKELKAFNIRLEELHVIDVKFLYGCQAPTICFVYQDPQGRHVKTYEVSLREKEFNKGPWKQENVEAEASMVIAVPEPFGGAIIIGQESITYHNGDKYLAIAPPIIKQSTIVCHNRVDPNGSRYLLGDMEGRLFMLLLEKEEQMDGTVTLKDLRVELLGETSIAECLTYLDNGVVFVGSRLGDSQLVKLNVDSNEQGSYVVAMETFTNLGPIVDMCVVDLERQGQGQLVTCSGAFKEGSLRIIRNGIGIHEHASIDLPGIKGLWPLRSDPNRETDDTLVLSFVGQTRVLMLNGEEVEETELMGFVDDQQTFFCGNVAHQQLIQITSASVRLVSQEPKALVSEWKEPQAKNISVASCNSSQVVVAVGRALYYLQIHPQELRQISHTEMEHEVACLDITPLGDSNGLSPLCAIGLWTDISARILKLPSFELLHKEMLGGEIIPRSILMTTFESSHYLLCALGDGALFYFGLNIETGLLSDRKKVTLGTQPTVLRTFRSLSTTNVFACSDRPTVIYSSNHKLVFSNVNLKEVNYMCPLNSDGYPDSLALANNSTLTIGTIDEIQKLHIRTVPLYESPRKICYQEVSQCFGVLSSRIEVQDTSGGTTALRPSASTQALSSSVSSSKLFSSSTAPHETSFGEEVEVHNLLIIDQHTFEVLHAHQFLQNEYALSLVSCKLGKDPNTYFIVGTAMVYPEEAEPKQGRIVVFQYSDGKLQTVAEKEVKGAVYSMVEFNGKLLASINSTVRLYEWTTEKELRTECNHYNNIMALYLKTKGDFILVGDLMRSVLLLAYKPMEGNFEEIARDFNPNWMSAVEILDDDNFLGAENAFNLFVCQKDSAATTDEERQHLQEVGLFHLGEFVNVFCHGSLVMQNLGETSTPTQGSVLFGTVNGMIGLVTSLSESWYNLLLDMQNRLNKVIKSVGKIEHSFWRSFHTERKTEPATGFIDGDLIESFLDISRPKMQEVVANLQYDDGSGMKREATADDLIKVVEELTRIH

Regarding `CS(=O)(=O)C1(CN[C@H]2CC[C@H](N(CCC3CC3)c3cccc4c3CN(C3CCC(=O)NC3=O)C4=O)CC2)CC1` (stereo partly shown) [Compound 615, 3-{4-[(2-cyclopropylethyl)[(1r,4r)-4-{[(1-methanesulfonylcyclopropyl)methyl]amino}cyclohexyl]amino]-1-oxo-3H-isoindol-2-yl}piperidine-2,6-dione; trifluoroacetate], the IC50 in experiment [1] (setting [4]) was less than 100 nM. Moreover, in experiment [2], the Dmax at 1 µM is more than 75%.

With `O=C1CCC(N2Cc3c(cccc3N(CCC3CC3)[C@H]3CC[C@H](NCC4(F)CC4)CC3)C2=O)C(=O)N1` (stereo partly shown) [Compound 612, 3-{4-[(2-cyclopropylethyl)[(1r,4r)-4-{[(1-fluorocyclopropyl)methyl]amino}cyclohexyl]amino]-1-oxo-3H-isoindol-2-yl}piperidine-2,6-dione], the IC50 in experiment [1] (setting [4]) was less than 100 nM. For the same compound, the Dmax at 1 µM in experiment [2] was more than 75%.

Regarding `O=C1CCC(N2Cc3c(cccc3N(CCC3CC3)[C@H]3CC[C@H](NCC4(F)CCC4)CC3)C2=O)C(=O)N1` (stereo partly shown) [Compound 613, 3-{4-[(2-cyclopropylethyl)[(1r,4r)-4-{[(1-fluorocyclobutyl)methyl]amino}cyclohexyl]amino]-1-oxo-3H-isoindol-2-yl}piperidine-2,6-dione], the IC50 in experiment [1] (setting [4]) was less than 100 nM. Further, in experiment [2], the Dmax at 1 µM was more than 75%.

Consider `C[C@]1(N)CC[C@@H](N(CCC2CC2)c2cccc3c2CN(C2CCC(=O)NC2=O)C3=O)CC1` (stereo partly shown) [Compound 635, 3-{4-[(2-cyclopropylethyl)[(1s,4s)-4-amino-4-methylcyclohexyl]amino]-1-oxo-3H-isoindol-2-yl}piperidine-2,6-dione], for which the IC50 in experiment [1] (setting [4]) was less than 100 nM. Besides, in experiment [2], the Dmax at 1 µM is more than 75%.

For `O=C1CCC(N2Cc3c(cccc3N(CCC3CC3)[C@H]3C[C@@H](c4nnc[nH]4)C3)C2=O)C(=O)N1` (stereo partly shown) [Compound 603, 3-{4-[(2-cyclopropylethyl)[(1s,3s)-3-(4H-1,2,4-triazol-3-yl)cyclobutyl]amino]-1-oxo-3H-isoindol-2-yl}piperidine-2,6-dione; formate], the IC50 in experiment [1] (setting [4]) was less than 100 nM. In addition, the Dmax at 1 µM in experiment [2] was more than 75%.

On to `O=C1CCC(N2Cc3c(cccc3N(CCCCC(F)(F)F)[C@H]3CC[C@H](NCCC(F)(F)F)CC3)C2=O)C(=O)N1` (stereo partly shown) [Compound 636, 3-(1-oxo-4-{[(1r,4r)-4-[(3,3,3-trifluoropropyl)amino]cyclohexyl](5,5,5-trifluoropentyl)amino}-3H-isoindol-2-yl)piperidine-2,6-dione; trifluoroacetate], for which the IC50 in experiment [1] (setting [4]) was 100 to 1000 nM. Also, the Dmax at 1 µM in experiment [2] was more than 75%.

Turning to `O=C1CCC(N2Cc3c(cccc3N(CCC3CC3)[C@H]3C[C@H](c4nnc[nH]4)C3)C2=O)C(=O)N1` (stereo partly shown) [Compound 604, 3-{4-[(2-cyclopropylethyl)[(1s,3s)-3-(4H-1,2,4-triazol-3-yl)cyclobutyl]amino]-1-oxo-3H-isoindol-2-yl}piperidine-2,6-dione; formate], in experiment [1] (setting [4]), the IC50 is less than 100 nM. The Dmax at 1 µM in experiment [2] is more than 75%.

As for `C[C@]1(N)CC[C@H](N(CCC2CC2)c2cccc3c2CN(C2CCC(=O)NC2=O)C3=O)CC1` (stereo partly shown) [Compound 634, 3-{4-[(2-cyclopropylethyl)[(1r,4r)-4-amino-4-methylcyclohexyl]amino]-1-oxo-3H-isoindol-2-yl}piperidine-2,6-dione], the IC50 in experiment [1] (setting [4]) was 100 to 1000 nM. The Dmax at 1 µM in experiment [2] is 50 to 75%.

On to `O=C1CCC(N2Cc3c(cccc3N(CCC3CC3)[C@H]3CC[C@H](NCC4(F)COC4)CC3)C2=O)C(=O)N1` (stereo partly shown) [Compound 616, 3-{4-[(2-cyclopropylethyl)[(1r,4r)-4-{[(3-fluorooxetan-3-yl)methyl]amino}cyclohexyl]amino]-1-oxo-3H-isoindol-2-yl}piperidine-2,6-dione; trifluoro acetate], for which, in experiment [1] (setting [4]), the IC50 was less than 100 nM. For the same compound, the Dmax at 1 µM in experiment [2] was more than 75%.

As for `CCCCCN(c1cccc2c1CN(C1CCC(=O)NC1=O)C2=O)[C@@H]1CC[C@H](N)C1` (stereo partly drawn) [Compound 324, 3-(4-(((1R,3S)-3-aminocyclopentyl)(pentyl)amino)-1-oxoisoindolin-2-yl)piperidine-2,6-dione], the Dmax in experiment [3] was more than 75%. The IC50 in experiment [1] (setting [5]) was less than 100 nM.

On to `C/C=C/CN(CCCCN)c1cccc2c1CN(C1CCC(=O)NC1=O)C2=O` (stereo not shown) [Compound 68, (E)-3-(4-((4-aminobutyl)(but-2-en-1-yl)amino)-1-oxoisoindolin-2-yl)piperidine-2,6-dione], for which the Dmax in experiment [3] is more than 75%. Moreover, the IC50 in experiment [1] (setting [5]) is less than 100 nM.

`N[C@H]1CC[C@H](N(CCCc2ccccc2)c2cccc3c2CN(C2CCC(=O)NC2=O)C3=O)CC1` (stereo partly shown) [Compound 251, 3-(4-(((1r,4r)-4-aminocyclohexyl)(3-phenylpropyl)amino)-1-oxoisoindolin-2-yl)piperidine-2,6-dione hydrochloride]: in experiment [3], the Dmax was more than 75%. The IC50 in experiment [1] (setting [5]) is less than 100 nM.

With `CCCCCN(CCCCNC)c1cccc2c1CN(C1CCC(=O)NC1=O)C2=O` (stereo not shown) [Compound 80, 3-(4-((4-(methylamino)butyl)(pentyl)amino)-1-oxoisoindolin-2-yl)piperidine-2,6-dione.Hydrochloride], the Dmax in experiment [3] was more than 75%. For the same compound, the IC50 in experiment [1] (setting [5]) is less than 100 nM.

As for `CCCN(CCCCC(=O)NC)c1cccc2c1CN(C1CCC(=O)NC1=O)C2=O` (stereo not shown) [Compound 63, 5-((2-(2,6-dioxopiperidin-3-yl)-1-oxoisoindolin-4-yl)(propyl)amino)-N-methylpentanamide], the Dmax in experiment [3] is more than 75%. Further, the IC50 in experiment [1] (setting [5]) is less than 100 nM.

The values are drawn from patent publication US20250188069A1, “COMPOUNDS AND METHODS FOR DEGRADING CASEIN KINASE 1 ALPHA” (PIN THERAPEUTICS, INC., priority 2022, published 2025).
